Paper PMC3469269 (ACS medicinal chemistry letters, 2012)

Columns and labels:
hDAT = hDAT (Homo sapiens, UniProt Q01959); assay: Inhibition of [3H]-WIN-35,428 binding to hDAT in N2A neuroblastoma cells
DAT [1] = details: ref Vaughan et al., unpublished observations; cited from earlier work
DAT [2] = details: cited from earlier work

hDAT, sequence (Q01959 whole entry): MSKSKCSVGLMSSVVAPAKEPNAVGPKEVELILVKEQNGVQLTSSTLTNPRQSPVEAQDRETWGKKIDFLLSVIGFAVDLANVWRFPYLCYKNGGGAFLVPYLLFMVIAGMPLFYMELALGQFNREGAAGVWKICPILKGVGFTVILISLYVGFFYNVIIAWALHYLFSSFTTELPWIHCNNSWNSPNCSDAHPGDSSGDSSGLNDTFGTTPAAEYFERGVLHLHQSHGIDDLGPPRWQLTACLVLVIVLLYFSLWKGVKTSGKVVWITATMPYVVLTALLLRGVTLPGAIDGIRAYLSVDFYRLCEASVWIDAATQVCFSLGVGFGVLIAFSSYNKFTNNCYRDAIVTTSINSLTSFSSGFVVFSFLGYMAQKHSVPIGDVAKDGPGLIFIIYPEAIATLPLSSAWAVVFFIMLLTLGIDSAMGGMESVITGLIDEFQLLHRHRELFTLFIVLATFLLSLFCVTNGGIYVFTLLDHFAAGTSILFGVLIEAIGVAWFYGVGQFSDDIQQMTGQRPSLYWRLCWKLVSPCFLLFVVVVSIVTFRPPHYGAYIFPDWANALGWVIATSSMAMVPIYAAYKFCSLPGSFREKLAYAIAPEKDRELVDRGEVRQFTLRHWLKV

## COC(=O)[C@H](c1ccc(N=[N+]=[N-])c(I)c1)[C@H]1CCCCN1 (racemic) [(±)-6, (±)-threo-4-Azido-3-iodomethylphenidate]
hDAT; relative to (±)-14 (aniline replaced by azide)
  fold increase in hDAT affinity: ~ 2.3 fold

## COC(=O)C1C(c2ccc(N=[N+]=[N-])c(I)c2)CC2CCC1N2C (stereo not shown) [compound 5, 3-(4′-azido-3′-iodo-phenyl)-8-methyl-8-aza-bicyclo-[3.2.1]octane-2-carboxylic acid methyl ester]
DAT [1]
  labeling of the DAT in immunoprecipitation and proteolysis experiments: fails to label the DAT
DAT [2]
  binding to the DAT: high affinity, wash-resistant binding

## COC(=O)[C@H](c1ccc(N)c(I)c1)[C@H]1CCCCN1 (racemic) [(±)-14]
hDAT; relative to aniline (±)-13 (addition of 3-I)
  fold decrease in binding affinity for hDAT: ~ 1.4 fold
